Where a name gives a salt, the structure may show the parent alone.
Tests used:
[1] = system: ALPK1-dependent NFκB reporter gene activation in HEK293 cells stably expressing an NF-kB reporter (G9 cells); experiment: NFκB gene reporter alkaline phosphatase assay; type: cell-based; conditions: Homo sapiens, read-out: NFKB assay IC50
Procedure: NFκB Gene Reporter Alkaline Phosphatase Assay
An alkaline phosphatase reporter assay system was used to measure inhibition of ALPK1-dependent NFκB reporter gene activation. Briefly, HEK293 cells stably expressing an NF-kB reporter (referred to herein as “G9 cells”) were maintained in Dulbecco's Modified Eagle Medium (DMEM) supplemented with 10% fetal bovine serum (FBS, Hyclone™) containing antibiotics (pen/strep, G418) […]. For the assay, cells were seeded into 96-well plates at a density of 10,000 cells/well in Freestyle™ 293 Expression Medium (ThermoFisher) and allowed to attach overnight. […] NFkB gene activation was detected using the chromogenic substrate, para-nitrophenyl phosphate (pNPP) according to the manufacturer's protocols (pNPP Phosphatase Assay, Beyotime Biotechnology).

ALPK1 = ALPK1 (Homo sapiens (Human), UniProt Q96QP1); experiment: ALPK1 in vitro kinase assay (HTRF of TIFA phosphorylation); type: biochemical; conditions: ALPK1 2 nM activated by ADP-Heptose, TIFA substrate
ALPK1, sequence (Q96QP1 whole entry): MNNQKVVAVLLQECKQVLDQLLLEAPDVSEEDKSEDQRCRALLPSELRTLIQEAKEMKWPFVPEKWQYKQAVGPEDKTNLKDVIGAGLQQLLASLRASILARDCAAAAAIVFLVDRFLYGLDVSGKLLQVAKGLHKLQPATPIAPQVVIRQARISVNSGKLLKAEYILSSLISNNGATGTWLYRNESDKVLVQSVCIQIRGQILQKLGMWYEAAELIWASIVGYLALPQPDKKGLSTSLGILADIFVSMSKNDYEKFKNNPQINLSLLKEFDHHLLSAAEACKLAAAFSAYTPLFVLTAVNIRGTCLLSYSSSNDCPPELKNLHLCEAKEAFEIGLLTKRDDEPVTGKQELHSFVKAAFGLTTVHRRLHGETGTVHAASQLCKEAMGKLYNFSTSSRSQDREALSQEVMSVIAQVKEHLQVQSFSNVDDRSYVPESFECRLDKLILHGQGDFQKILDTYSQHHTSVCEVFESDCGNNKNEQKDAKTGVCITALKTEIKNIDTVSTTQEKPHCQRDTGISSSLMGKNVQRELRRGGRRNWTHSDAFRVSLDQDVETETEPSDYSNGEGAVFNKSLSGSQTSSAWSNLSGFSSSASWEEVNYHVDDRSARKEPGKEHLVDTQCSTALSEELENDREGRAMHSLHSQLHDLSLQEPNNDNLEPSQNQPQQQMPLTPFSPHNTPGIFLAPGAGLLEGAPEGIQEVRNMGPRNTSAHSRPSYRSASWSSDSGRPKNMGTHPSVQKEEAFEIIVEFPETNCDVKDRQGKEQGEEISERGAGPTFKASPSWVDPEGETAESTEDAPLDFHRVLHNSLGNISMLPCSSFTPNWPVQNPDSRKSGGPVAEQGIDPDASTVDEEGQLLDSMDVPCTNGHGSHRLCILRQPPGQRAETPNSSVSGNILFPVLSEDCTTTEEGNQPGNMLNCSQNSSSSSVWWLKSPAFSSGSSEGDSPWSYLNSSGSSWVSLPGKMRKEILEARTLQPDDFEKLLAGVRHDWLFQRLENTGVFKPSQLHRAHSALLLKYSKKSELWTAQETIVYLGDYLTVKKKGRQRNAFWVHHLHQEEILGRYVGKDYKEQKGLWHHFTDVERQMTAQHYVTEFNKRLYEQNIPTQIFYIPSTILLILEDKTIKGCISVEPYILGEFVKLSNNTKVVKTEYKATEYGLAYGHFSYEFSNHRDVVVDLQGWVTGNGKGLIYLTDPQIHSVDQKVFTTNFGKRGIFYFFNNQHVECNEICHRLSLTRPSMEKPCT
Procedure: ALPK1 in vitro Kinase Assay
ALPK1 kinase activity was measured in an in vitro assay using ADP-Heptose as the ALPK1 ligand and activator of its kinase activity and TIFA protein as the ALPK1 phosphorylation substrate. Since phosphorylated TIFA proteins oligomerize, Homogeneous Time-Resolved Fluorescence (HTRF) was used to measure protein: protein interaction between HA-tagged TIFA proteins as an indicator of TIFA phosphorylation.
In brief, dose-response studies were performed in 384-well assay plates. Each well contained 0.1 mg TIFA, ALPK1 (2 nM final concentration in reaction mixture) and kinase buffer (100 mM of HEPES pH 7.4, 4 mM DTT, 40 mM MgCl2, 20 mM of β-Glycerol phosphate disodium salt, 0.4 mM of Na3VO4, 0.16 mg/mL). Titrations of the test compounds were prepared in dimethylsulphoxide (DMSO). The reaction was initiated by addition of ATP and ADP-Heptose.
For HTRF, samples were incubated with a Tb cryptate-labeled anti-HA antibody for capturing HA-tagged proteins according to the manufacturer's instructions (PerkinElmer™, CisBio™) and the fluorescence signal was quantified (Tecan Infinite F NANO+). HTRF signals were calculated as the HTRF ratio (ratio of fluorescence measured at 665 nm and 620 nm)×104 (thereby using the signal at 620 nm as an internal standard).
IC50 values were determined using 3- or 4-parameter logistic equation using GraphPad Prism version 6.00. The reference compound, A027, was used as a positive control for each plate.

[2] = system: ALPK1-dependent gene expression in kidney; experiment: Inhibition of ALPK1 in kidney: ALPK1 agonist-induced gene expression in rats; type: in vivo, Sprague-Dawley (SD) rats; conditions: SD rats, oral 2, 5, 10, 20 mpk 21 h before ip ALPK1 agonist, kidneys 3 h after agonist; relative to vehicle group
[3] = system: lupus nephritis in MRL/MpJ-Faslpr/J mice; experiment: MRL/MpJ-Faslpr/J mouse lupus nephritis model; type: in vivo
From the text: After 8 weeks of treatment, the animals were sacrificed, and their urine was collected for proteinuria assessment using Urine Protein Test Strips (FIG. 9). The right kidneys were harvested and stained by hematoxylin and eosin (H&E) for pathological evaluation (FIG. 10A-G).

[4] = system: UUO induced kidney fibrosis; conditions: rat UUO
From the text: Briefly, we ligated the left ureter of rat and then start the daily oral treatment right after the surgery for 7 days, and then measure the kidney fibrosis by hydroxyproline content measurement and Sirus red staining. Because of the amount of renal inflammation, we used hydroxyproline (OH-P) content indexed to total protein for interpretation of UUO-induced fibrosis and compound efficacy (FIG. 3A) For completeness, we also analyzed the OH-P content indexed to tissue mass (FIG. 3B).

[5] = system: adenine diet induced rat CKD model
From the text: We started compound dosing from day 14 after adenine diet inception for 6 weeks. During the study, we collected plasma and measure the Blood Urea Nitrogen (BUN) (FIG. 6A) and creatine (FIG. 6B) level weekly.

[6] = 10 mg/kg oral daily, 8 weeks, kidney H&E
[7] = daily oral treatment for 7 days, C008 at 7 mpk & 20 mpk

**Q.** With `COc1ccc(C(C)(C)c2csc(NC(=O)NCc3cc(F)c(N4CCNCC4)cc3F)n2)cc1` [Example A231, 1-(2,5-difluoro-4-(piperazin-1-yl)benzyl)-3-(4-(2-(4-methoxyphenyl)propan-2-yl)thiazol-2-yl)urea hydrochloride] as the molecule, how does the IC50 [1] read?
**A.** 3360 nM

**Q.** Which IC50 (ALPK1) does the source give for `C#C[C@](C)(c1ccc(Cl)cc1)c1nc(NC(=O)c2c(F)cc(N3CCNCC3)cc2F)sc1Cl` (stereo in doubt) [Example C050, N-(5-chloro-4-(2-(4-chlorophenyl)but-3-yn-2-yl)thiazol-2-yl)-2,6-difluoro-4-(piperazin-1-yl)benzamide] here?
**A.** 923 nM

**Q.** For `COc1ccc(C(C)(C)c2csc(NC(=O)N3CC(c4ccc(N5CCNCC5)cc4)C3)n2)cc1` [Example A233, N-(4-(2-(4-methoxyphenyl)propan-2-yl)thiazol-2-yl)-3-(4-(piperazin-1-yl)phenyl)azetidine-1-carboxamide], which IC50 [1] is on record?
**A.** 330 nM

**Q.** `COc1ccc(C(C)(C)c2csc(NC(=O)c3ccc(N4CCNCC4C)cc3)n2)cc1` (centres unmarked) [Example B014] was tested. Which IC50 (ALPK1) did it give?
**A.** 300 nM

**Q.** How did the IC50 (ALPK1) turn out when `C#C[C@](C)(c1ccc(Cl)cc1)c1csc(NC(=O)c2c(F)cc(N3CCN(C)CC3)cc2F)n1` (stereo in doubt) [Example C009, N-(4-(2-(4-chlorophenyl)but-3-yn-2-yl)thiazol-2-yl)-2,6-difluoro-4-(4-methylpiperazin-1-yl)benzamide] was run?
**A.** 7 nM

**Q.** With `COc1ccc(C(C)(C)c2csc(NC(=O)c3ccc(N4CCC(O)C4)cc3)n2)cc1` (centres unmarked) [Example B009, 4-(3-hydroxypyrrolidin-1-yl)-N-(4-(2-(4-methoxyphenyl)propan-2-yl)thiazol-2-yl)benzamide] as the molecule, how does the IC50 (ALPK1) read?
**A.** 95 nM

**Q.** How did the IC50 (ALPK1) turn out when `C#C[C@@](C)(c1ccc(F)cc1)c1csc(NC(=O)c2ccc(N3CCNCC3CO)cc2)n1` (stereo in doubt) [Example B070, N-[4-[1-(4-fluorophenyl)-1-methyl-prop-2-ynyl]thiazol-2-yl]-4-[2-(hydroxymethyl)piperazin-1-yl]benzamide] was run?
**A.** 169 nM

**Q.** `C#C[C@@](C)(c1ccc(Cl)cc1)c1csc(NC(=O)c2c(F)cc(N3CCNCC3)cc2F)n1` [Example C008, (S)-N-(4-(2-(4-chlorophenyl)but-3-yn-2-yl)thiazol-2-yl)-2,6-difluoro-4-(piperazin-1-yl)benzamide] was tested. Which “mRNA expression for CCL-2, CCL-7, CXCL-1, CXCL-10, IL-1β and IL-6 in kidney” value [2] did it give?
**A.** significant decreases

**Q.** And the proteinuria scores ([3]; 10 mg/kg oral daily, 8 weeks, compared to vehicle disease group)?
**A.** significant reduction

**Q.** And the “pathological score: crescent” value [3, 6]?
**A.** significantly lower

**Q.** What about the “pathological score: glomerulus diameter” value [3, 6] of the same molecule?
**A.** significantly lower

**Q.** And the “pathological score: interstitial inflammation” value [3, 6]?
**A.** significantly lower

**Q.** And the “pathological score: protein cast” value [3, 6]?
**A.** significantly lower

**Q.** What about the “mRNA expression of Ccl2, Ccl4, Ccl5, Ccr1 and IL-6 in kidney” value ([3]; left kidneys, qPCR, after 8 weeks, relative to vehicle group) of the same molecule?
**A.** significant decreases

**Q.** What about the “UUO induced kidney fibrosis” value ([4]; C008 2, 7, 20 mg/kg) of the same molecule?
**A.** dose dependently suppress

**Q.** What about the “UUO-induced increases in renal cortical CVF (Collagen Volume Fraction, Sirus Red)” value [4, 7] of the same molecule?
**A.** attenuated

**Q.** What about the “UUO-induced increases in renal cortical OH-P (hydroxyproline)” value [4, 7] of the same molecule?
**A.** attenuated

**Q.** What about the “kidney expression of genes involved in fibrosis and inflammation” value ([4]; separate study, C008 5, 10, 20 mg/kg) of the same molecule?
**A.** inhibited

**Q.** What about the “adenine-induced increases in renal cortical CVF” value ([5]; rat adenine diet, end of study, C008 at 7 and 20 mpk) of the same molecule?
**A.** attenuated

**Q.** And the “adenine-induced increases in plasma creatinine” value ([5]; rat adenine diet, ALK5i: days 35-56, C008: days 35 (20 mpk), 49 & 56 (7&20 mpk))?
**A.** attenuated

**Q.** What about the “adenine-induced increases in plasma BUN” value ([5]; rat adenine diet, ALK5i: days 35-56, C008: days 42 (20 mpk), 49 (7&20 mpk), 56 (20 mpk)) of the same molecule?
**A.** attenuated

**Q.** What about the “adenine diet induced kidney dysfunction and kidney fibrosis” value ([5]; rat, C008 7, 20 mg/kg, dosing from day 14 for 6 weeks) of the same molecule?
**A.** significantly inhibit

**Q.** `COc1ccc(C(C)(C)c2csc(NC(=O)NCc3cc(F)c(C4CCNCC4)c(F)c3)n2)cc1` [Example A151, 1-(3,5-difluoro-4-(piperidin-4-yl)benzyl)-3-(4-(2-(4-methoxyphenyl)propan-2-yl)thiazol-2-yl)urea hydrochloride] was tested. Which IC50 [1] did it give?
**A.** 950 nM

From US20250381196A1 (SHANGHAI YAO YUAN BIOTECHNOLOGY CO., LTD., priority 2022, published 2025)
